In publication PMC3914206:

Assays:
Assay in all cases: KiNativ chemical proteomics profiling in HeLa and PC3 cell lysates
Type in all cases: binding
[1] = target: T1, selected panels of kinases in HeLa and PC3 cell lysates (Homo sapiens, UniProt O14757); details: 10 uM; proteome HEL; peptide DIkPENLLLDER; labeling site Lys2
T1 construct: endogenous in cells; host or cells: HeLa and PC3 cell lysates

[2] = target: T2, selected panels of kinases in HeLa and PC3 cell lysates (Homo sapiens, UniProt Q8IU85); details: 10 uM; proteome HEL; peptide LFAVkCIPK; labeling site Lys1
T2 construct: endogenous in cells; host or cells: HeLa and PC3 cell lysates

[3] = target: T3, selected panels of kinases in HeLa and PC3 cell lysates (Homo sapiens, UniProt Q86UE8); details: 10 uM; TLK2; peptide YVAVkIHQLNK; proteome PC3; labeling site Lys1
T3 construct: endogenous in cells; host or cells: HeLa and PC3 cell lysates
T3 sequence (Q86UE8 whole entry): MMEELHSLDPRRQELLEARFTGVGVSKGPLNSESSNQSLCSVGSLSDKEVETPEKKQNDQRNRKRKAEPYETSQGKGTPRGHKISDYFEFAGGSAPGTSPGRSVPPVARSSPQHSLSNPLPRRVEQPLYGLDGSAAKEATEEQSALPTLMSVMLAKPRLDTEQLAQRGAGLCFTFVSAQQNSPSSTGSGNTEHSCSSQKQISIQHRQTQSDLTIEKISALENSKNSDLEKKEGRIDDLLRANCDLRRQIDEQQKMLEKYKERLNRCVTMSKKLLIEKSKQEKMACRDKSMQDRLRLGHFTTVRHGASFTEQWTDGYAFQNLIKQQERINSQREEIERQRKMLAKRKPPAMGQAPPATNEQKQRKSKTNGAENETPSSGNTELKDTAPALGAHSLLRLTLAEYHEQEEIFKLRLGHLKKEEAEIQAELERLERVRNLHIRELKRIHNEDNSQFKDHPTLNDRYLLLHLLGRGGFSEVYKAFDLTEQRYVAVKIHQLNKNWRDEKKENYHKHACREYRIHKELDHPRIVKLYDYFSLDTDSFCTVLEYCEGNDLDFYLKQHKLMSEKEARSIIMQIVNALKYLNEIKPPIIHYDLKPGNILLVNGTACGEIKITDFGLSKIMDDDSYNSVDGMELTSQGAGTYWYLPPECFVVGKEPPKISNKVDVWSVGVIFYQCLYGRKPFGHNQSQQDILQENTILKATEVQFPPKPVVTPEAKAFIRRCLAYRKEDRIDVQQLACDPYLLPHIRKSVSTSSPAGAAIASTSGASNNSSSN

[4] = target: T4, selected panels of kinases in HeLa and PC3 cell lysates (Homo sapiens, UniProt Q9Y4K4); details: 10 uM; proteome PC3; peptide […]kIIK; labeling site Lys1
T4 construct: endogenous in cells; host or cells: HeLa and PC3 cell lysates

[5] = target: T5, selected panels of kinases in HeLa and PC3 cell lysates (Homo sapiens, UniProt Q15375); details: 10 uM; proteome PC3; peptide […]kIPVR; labeling site Activation Loop
T5 construct: endogenous in cells; host or cells: HeLa and PC3 cell lysates

[6] = target: T6, selected panels of kinases in HeLa and PC3 cell lysates (Homo sapiens, UniProt Q13523); details: 10 uM; PRP4; peptide […]k[…]; proteome PC3; labeling site Lys2
T6 construct: endogenous in cells; host or cells: HeLa and PC3 cell lysates

[7] = target: T7, selected panels of kinases in HeLa and PC3 cell lysates (Homo sapiens, UniProt Q9BZL6); details: 10 uM, PKD2, peptide DVAVkVIDK, labeling site Lys1
T7 construct: endogenous in cells; host or cells: HeLa and PC3 cell lysates
T7 sequence (Q9BZL6 1-878): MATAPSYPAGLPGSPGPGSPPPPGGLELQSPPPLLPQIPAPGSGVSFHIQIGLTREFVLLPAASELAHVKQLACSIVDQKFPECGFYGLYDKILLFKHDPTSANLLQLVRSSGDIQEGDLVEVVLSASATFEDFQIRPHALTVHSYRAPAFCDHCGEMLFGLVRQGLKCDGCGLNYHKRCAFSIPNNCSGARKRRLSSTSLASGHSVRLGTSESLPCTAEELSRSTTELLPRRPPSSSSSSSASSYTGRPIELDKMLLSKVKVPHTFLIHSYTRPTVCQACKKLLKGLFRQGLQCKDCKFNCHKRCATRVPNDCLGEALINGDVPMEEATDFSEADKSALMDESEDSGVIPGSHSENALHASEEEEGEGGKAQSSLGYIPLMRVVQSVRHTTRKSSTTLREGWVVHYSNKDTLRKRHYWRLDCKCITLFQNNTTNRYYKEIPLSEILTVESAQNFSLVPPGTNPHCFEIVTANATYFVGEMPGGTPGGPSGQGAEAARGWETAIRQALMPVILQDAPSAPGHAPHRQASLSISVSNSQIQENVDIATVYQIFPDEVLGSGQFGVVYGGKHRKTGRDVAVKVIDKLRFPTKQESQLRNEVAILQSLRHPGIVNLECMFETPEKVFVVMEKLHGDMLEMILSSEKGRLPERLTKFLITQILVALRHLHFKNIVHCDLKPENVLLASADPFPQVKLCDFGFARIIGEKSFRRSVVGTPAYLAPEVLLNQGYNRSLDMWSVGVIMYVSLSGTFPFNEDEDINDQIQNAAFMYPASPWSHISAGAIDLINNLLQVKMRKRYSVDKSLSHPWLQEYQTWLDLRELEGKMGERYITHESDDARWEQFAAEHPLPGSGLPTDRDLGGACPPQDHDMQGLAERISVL

[8] = target: T8, selected panels of kinases in HeLa and PC3 cell lysates (Homo sapiens, UniProt Q8IVH8); details: 10 uM; proteome PC3; peptide […]kVIK; labeling site Lys1
T8 construct: endogenous in cells; host or cells: HeLa and PC3 cell lysates

[9] = target: T9, selected panels of kinases in HeLa and PC3 cell lysates (Homo sapiens, UniProt O60307); details: 10 uM, peptide DLk[…], labeling site Lys2
T9 construct: endogenous in cells; host or cells: HeLa and PC3 cell lysates
T9 sequence (O60307 whole entry): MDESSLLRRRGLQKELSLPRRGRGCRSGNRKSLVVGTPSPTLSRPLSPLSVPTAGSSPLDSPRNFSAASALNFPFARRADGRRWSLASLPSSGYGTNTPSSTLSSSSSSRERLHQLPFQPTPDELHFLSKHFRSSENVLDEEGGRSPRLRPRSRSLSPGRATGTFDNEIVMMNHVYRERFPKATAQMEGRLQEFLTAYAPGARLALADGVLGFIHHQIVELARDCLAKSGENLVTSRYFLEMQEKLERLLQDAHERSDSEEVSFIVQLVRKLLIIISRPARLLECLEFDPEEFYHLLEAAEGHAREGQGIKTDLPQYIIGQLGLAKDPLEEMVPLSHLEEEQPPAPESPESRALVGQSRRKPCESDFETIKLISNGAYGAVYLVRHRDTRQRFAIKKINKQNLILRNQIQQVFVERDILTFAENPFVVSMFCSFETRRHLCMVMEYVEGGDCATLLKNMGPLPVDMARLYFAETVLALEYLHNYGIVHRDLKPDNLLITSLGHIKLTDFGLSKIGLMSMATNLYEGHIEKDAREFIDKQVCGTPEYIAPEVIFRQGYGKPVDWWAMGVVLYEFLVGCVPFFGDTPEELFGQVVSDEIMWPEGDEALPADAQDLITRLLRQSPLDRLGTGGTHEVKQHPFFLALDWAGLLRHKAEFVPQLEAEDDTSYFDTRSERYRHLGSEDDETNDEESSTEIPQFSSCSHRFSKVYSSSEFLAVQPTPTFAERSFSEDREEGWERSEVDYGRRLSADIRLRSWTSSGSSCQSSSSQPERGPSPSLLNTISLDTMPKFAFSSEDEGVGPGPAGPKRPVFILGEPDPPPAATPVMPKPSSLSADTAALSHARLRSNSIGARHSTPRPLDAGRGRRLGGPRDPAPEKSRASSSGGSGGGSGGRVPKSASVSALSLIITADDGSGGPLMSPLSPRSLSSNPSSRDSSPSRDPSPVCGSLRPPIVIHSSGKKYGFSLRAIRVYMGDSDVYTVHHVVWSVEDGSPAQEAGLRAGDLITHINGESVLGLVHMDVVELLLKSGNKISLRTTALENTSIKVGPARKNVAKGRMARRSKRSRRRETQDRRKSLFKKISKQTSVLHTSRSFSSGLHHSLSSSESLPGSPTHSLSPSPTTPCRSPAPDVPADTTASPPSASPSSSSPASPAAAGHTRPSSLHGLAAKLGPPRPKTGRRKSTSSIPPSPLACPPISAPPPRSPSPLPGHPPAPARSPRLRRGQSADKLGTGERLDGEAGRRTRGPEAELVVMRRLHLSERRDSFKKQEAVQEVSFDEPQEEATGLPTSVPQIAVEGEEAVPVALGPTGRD

[10] = target: T10, selected panels of kinases in HeLa and PC3 cell lysates (Homo sapiens, UniProt Q14012); details: 10 uM; proteome HEL; peptide LVAIkCIAK; labeling site Lys1
T10 construct: endogenous in cells; host or cells: HeLa and PC3 cell lysates

[11] = target: T11, selected panels of kinases in HeLa and PC3 cell lysates (Homo sapiens, UniProt Q04912); details: 10 uM; RON; peptide IQCAIkSLSR; proteome PC3; labeling site Lys1
T11 construct: endogenous in cells; host or cells: HeLa and PC3 cell lysates

[12] = target: T12, selected panels of kinases in HeLa and PC3 cell lysates (Homo sapiens, UniProt Q96SB4); details: 10 uM; SRPK1; peptide IIHTDIk[…]; proteome PC3; labeling site Lys2
T12 construct: endogenous in cells; host or cells: HeLa and PC3 cell lysates
T12 sequence (Q96SB4 whole entry): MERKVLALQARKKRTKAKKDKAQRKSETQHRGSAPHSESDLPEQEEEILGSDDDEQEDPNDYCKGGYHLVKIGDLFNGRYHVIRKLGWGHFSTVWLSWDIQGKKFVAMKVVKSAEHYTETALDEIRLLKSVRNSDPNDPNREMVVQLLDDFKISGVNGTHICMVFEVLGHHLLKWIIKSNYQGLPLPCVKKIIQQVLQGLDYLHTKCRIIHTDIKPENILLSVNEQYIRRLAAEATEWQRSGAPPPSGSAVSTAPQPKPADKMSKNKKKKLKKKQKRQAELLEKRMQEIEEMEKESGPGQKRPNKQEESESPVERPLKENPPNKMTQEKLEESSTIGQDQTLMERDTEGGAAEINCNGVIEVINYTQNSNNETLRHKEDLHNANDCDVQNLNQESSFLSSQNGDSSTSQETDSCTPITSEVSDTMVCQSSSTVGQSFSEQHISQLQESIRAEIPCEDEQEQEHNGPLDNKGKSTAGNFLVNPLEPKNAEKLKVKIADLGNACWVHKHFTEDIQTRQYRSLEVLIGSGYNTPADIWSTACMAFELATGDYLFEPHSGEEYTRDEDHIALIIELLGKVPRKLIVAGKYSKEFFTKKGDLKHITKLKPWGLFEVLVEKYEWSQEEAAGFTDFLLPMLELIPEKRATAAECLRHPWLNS

[13] = target: T13, selected panels of kinases in HeLa and PC3 cell lysates (Homo sapiens, UniProt O75460); details: 10 uM; proteome HEL; peptide DLk[…]; labeling site Lys2
T13 construct: endogenous in cells; host or cells: HeLa and PC3 cell lysates

[14] = target: T14, selected panels of kinases in HeLa and PC3 cell lysates (Homo sapiens, UniProt Q9H2G2); details: 10 uM, SLK
T14 construct: endogenous in cells; host or cells: HeLa and PC3 cell lysates
T14 sequence (Q9H2G2 whole entry): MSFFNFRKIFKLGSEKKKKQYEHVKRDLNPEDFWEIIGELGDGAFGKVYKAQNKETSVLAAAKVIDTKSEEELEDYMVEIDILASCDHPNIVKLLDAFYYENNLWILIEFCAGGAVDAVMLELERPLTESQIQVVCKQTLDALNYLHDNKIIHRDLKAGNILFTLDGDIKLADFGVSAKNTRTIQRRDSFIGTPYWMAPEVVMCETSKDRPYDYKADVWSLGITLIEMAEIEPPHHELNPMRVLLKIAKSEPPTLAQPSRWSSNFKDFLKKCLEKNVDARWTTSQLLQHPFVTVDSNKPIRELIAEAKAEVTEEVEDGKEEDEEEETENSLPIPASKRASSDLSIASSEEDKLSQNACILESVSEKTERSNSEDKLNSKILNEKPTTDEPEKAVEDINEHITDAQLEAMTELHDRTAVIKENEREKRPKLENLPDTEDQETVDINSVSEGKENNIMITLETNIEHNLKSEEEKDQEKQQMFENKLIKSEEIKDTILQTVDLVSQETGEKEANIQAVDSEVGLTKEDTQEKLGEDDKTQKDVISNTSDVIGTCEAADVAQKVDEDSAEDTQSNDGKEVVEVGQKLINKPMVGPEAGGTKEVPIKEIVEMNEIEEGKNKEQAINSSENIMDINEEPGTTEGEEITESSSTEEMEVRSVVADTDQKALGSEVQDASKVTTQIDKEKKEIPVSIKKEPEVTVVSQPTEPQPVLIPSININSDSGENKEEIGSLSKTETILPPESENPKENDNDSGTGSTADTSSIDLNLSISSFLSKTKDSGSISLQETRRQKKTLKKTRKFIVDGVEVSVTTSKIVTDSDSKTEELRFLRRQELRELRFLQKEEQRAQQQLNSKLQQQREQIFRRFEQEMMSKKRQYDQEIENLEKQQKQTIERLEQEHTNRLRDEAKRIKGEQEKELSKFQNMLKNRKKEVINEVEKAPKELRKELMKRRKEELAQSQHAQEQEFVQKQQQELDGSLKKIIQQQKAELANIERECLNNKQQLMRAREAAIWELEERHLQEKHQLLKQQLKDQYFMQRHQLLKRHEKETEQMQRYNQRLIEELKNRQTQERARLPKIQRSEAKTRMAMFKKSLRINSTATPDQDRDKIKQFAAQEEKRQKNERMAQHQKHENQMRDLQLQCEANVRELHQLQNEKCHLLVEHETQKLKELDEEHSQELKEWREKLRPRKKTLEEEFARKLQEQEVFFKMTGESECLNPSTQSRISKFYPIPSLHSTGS

[15] = target: T15, selected panels of kinases in HeLa and PC3 cell lysates (Homo sapiens, UniProt Q92918); details: 10 uM; proteome HEL; peptide […]kMVK; labeling site Lys1
T15 construct: endogenous in cells; host or cells: HeLa and PC3 cell lysates
T15 sequence (Q92918 whole entry): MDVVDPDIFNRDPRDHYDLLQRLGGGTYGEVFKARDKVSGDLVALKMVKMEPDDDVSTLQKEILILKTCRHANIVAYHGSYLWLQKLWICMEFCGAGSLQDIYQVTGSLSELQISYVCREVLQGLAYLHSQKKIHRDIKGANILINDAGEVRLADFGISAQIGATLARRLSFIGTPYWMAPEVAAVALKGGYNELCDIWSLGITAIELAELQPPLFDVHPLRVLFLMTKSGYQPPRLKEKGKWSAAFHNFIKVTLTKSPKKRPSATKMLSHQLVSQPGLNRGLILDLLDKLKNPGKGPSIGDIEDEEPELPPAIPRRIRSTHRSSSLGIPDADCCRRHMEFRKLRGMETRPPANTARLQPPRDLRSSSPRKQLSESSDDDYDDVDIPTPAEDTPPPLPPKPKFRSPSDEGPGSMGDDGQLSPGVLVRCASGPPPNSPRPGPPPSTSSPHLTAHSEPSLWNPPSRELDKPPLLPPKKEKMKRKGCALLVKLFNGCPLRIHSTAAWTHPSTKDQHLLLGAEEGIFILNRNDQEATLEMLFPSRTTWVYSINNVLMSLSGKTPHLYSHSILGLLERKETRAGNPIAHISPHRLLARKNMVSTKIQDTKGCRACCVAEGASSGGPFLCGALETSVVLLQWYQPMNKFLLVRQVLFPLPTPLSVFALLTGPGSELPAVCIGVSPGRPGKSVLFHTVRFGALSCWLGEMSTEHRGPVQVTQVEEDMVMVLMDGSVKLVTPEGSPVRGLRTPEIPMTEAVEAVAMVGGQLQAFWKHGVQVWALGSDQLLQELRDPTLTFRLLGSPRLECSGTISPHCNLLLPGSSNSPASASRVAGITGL

[16] = target: T16, selected panels of kinases in HeLa and PC3 cell lysates (Homo sapiens, UniProt Q00536); details: 10 uM; PCTAIRE1; peptide LTDNLVALkEIR; proteome PC3; labeling site Lys1
T16 construct: endogenous in cells; host or cells: HeLa and PC3 cell lysates

[17] = peptide DLk[…], proteome HEL, labeling site Lys2
[18] = peptide DLk[…], proteome PC3, labeling site Lys2
[19] = peptide ETSVLAAAkVIDTK, proteome PC3, labeling site Lys1

SMILES	% Inhibiton, CHK1 [1] [%]	% Inhibiton, CaMK1d [2] [%]	% Inhibition TLK2 [3] [%]	% Inhibiton, KHS1 [4] [%]	% Inhibiton, EphA7 [5] [%]	% Inhibition PRP4 [6] [%]	% Inhibition PKD2 ([7]; proteome HEL) [%]	% Inhibition PKD2 ([7]; proteome PC3) [%]	% Inhibiton, KHS2 [8] [%]	% Inhibiton, MAST3 ([9]; proteome HEL) [%]	% Inhibiton, MAST3 ([9]; proteome PC3) [%]	% Inhibiton, CaMK1a [10] [%]	% Inhibition RON [11] [%]	% Inhibition SRPK1 [12] [%]	% Inhibiton, IRE1 [13] [%]	% Inhibition SLK [14, 17] [%]	% Inhibition SLK [14, 18] [%]	% Inhibition SLK [14, 19] [%]	% Inhibiton, HPK1 [15] [%]	% Inhibition PCTAIRE1 [16] [%]
COc1cc(C(=O)N2CCC(N3CCN(C)CC3)CC2)ccc1Nc1ncc2c(n1)N(C1CCCC1)c1ccccc1C(=O)N2C [Compound 25, 11-cyclopentyl-2-((2-methoxy-4-(4-(4-methylpiperazin-1-yl)piperidine-1-carbonyl)phenyl)amino)-5-methyl-5H-benzo[e]pyrimido[5,4-b][1,4]diazepin-6(11H)-one]	-12.3	5.8	-3.6	-6.6	-3.8	-11.9	-7.1	-2.6	-4.9	0.5	-6.8	19.1	-17.5	-29.3	-1.8	10.4	-11.4	-17.6	-8.3	-25.8
CCOc1cc(C(=O)N2CCC(N3CCN(C)CC3)CC2)ccc1Nc1ncc2c(n1)N(C1CCCC1)c1ccccc1C(=O)N2C [Compound 26]	13.8	19.9	-11.7	-7.1	8.5	5.5	-14.3	26.9	-3.3	-5.1	-3.9	36	11.1	-25	-19	25.7	2.9	-35.8	-10.9	-26.9
